Target: T1, SIRT1 (Homo sapiens, UniProt Q96EB6)
T1 sequence (Q96EB6 1-747): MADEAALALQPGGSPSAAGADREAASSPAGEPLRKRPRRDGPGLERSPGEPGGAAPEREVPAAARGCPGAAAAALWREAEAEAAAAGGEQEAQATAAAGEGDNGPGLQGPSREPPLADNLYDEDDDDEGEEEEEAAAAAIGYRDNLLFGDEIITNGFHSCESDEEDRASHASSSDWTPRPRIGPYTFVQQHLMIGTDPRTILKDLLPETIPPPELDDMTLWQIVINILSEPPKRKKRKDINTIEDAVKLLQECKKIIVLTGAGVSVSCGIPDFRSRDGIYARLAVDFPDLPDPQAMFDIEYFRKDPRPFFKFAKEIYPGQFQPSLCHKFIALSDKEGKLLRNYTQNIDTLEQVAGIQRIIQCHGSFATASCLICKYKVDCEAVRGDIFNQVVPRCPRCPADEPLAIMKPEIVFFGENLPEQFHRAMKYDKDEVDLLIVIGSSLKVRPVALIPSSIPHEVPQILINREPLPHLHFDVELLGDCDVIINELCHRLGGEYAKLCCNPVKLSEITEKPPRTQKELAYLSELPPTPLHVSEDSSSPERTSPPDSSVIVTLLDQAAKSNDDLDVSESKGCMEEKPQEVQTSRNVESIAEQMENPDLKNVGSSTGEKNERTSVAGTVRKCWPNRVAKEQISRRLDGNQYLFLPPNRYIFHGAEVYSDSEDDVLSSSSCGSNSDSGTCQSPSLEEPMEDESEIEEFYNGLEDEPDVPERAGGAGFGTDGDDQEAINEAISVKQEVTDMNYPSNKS
Test: Mass spectrometry based SIRT1 deacetylation assay (activation)
Assay type: biochemical
Conditions: 10 nM SIRT1, 0.5 μM peptide substrate, 120 μM βNAD+, 25 min at 25° C.
Procedure, shortened: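 Recombinant N-His-tagged SIRT1 (E. coli BL21(DE3)), 10 nM, incubated 25 min at 25 °C with 0.5 μM biotin/5TMR-labelled acetyl-p53-derived 20-mer peptide and 120 μM βNAD+ in Tris-acetate pH 8 buffer with DTT and BSA. Formic acid stop; MS quantifies acetylated vs deacetylated peptide. EC1.5 = concentration giving 150% activation versus DMSO.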

Compound	% Fold Act. (percent maximum fold activation)	EC1.5 (concentration of test compound that results in 150% activation of SIRT1)
Cc1noc(NC(=O)c2cccc3ccc(-c4cccc(C(F)(F)F)c4)nc23)c1C [Compound 82]	A (Fold activation >200%)	B (EC1.5 1-25 uM)
CC(C)(C)c1nnc(NC(=O)c2cccc3ccc(-c4cccc(C(F)(F)F)c4)nc23)s1 [Compound 44]	B (Fold Activation <200%)	A (EC1.5<1.0 uM)
Cc1csc(NC(=O)c2cccc3cnc(-c4cccc(C(F)(F)F)c4)nc23)n1 [Compound 281]	A (Fold activation >200%)	B (EC1.5 1-25 uM)
Cc1csc(NC(=O)c2cccc3ccc(-c4cccc(C(F)(F)F)c4)nc23)n1 [Compound 27]	A (Fold activation >200%)	A (EC1.5<1.0 uM)
O=C(Nc1cccc(CN2CCOCC2)n1)c1cccc2ccc(-c3cccc(C(F)(F)F)c3)nc12 [Compound 228]	A (Fold activation >200%)	A (EC1.5<1.0 uM)
O=C(Nc1ccncc1)c1cccc2ccc(-c3cccc(C(F)(F)F)c3)nc12 [Compound 32]	A (Fold activation >200%)	A (EC1.5<1.0 uM)
O=C(Nc1ccccn1)c1cccc2cc(C(F)(F)F)c(-c3ccccc3)nc12 [Compound 184]		C (EC1.5>25 uM)
O=C(Nc1nc2ccccc2s1)c1cccc2ccc(-c3cccnc3)nc12 [Compound 233]	B (Fold Activation <200%)	B (EC1.5 1-25 uM)
Cc1ccnc(NC(=O)c2cccc3ccc(-c4cccc(C(F)(F)F)c4)nc23)n1 [Compound 49]	A (Fold activation >200%)	A (EC1.5<1.0 uM)
O=C(Nc1nc(CN2CCOCC2)cs1)c1cccc2ccc(-c3cccc(OC(F)(F)F)c3)nc12 [Compound 178]	A (Fold activation >200%)	A (EC1.5<1.0 uM)
Cc1cnc(NC(=O)c2cccc3ccc(-c4cccc(C(F)(F)F)c4)nc23)s1 [Compound 42]	B (Fold Activation <200%)	A (EC1.5<1.0 uM)
O=C(Nc1cccnc1)c1cccc2ccc(-c3cccc(OC4CCNCC4)c3)nc12 [Compound 132]	A (Fold activation >200%)	A (EC1.5<1.0 uM)
O=C(Nc1cccc(CN2CCCC2)c1)c1cccc2ccc(-c3cccc(C(F)F)c3)nc12 [Compound 316]	A (Fold activation >200%)	A (EC1.5<1.0 uM)
Cc1cc(NC(=O)c2cccc3ccc(-c4cccnc4)nc23)sn1 [Compound 236]		C (EC1.5>25 uM)
COc1cccc(C(=O)Nc2cccc3ccc(-c4cccc(C(F)(F)F)c4)nc23)c1 [Compound 205]	B (Fold Activation <200%)	B (EC1.5 1-25 uM)
FC(F)(F)c1cccc(-c2ccc3cccc(NCc4ccccn4)c3n2)c1 [Compound 136]		C (EC1.5>25 uM)
O=C(Nc1ccc(Cl)nc1)c1cccc2ccc(-c3cccc(C(F)(F)F)c3)nc12 [Compound 58]	B (Fold Activation <200%)	A (EC1.5<1.0 uM)
O=C(Nc1ncnc2ccc(-c3cccc(C(F)(F)F)c3)nc12)c1cncs1 [Compound 300]	A (Fold activation >200%)	B (EC1.5 1-25 uM)
FC(F)(F)c1cccc(-c2ccc3cccc(CNc4cccnc4)c3n2)c1 [Compound 105]		C (EC1.5>25 uM)
O=C(Nc1ccc(CN2CCCC2)cn1)c1cccc2ccc(-c3cccc(C(F)(F)F)c3)nc12 [Compound 285]	A (Fold activation >200%)	A (EC1.5<1.0 uM)
Cc1cc(NC(=O)c2cccc3ccc(-c4cccc(C(F)(F)F)c4)nc23)sn1 [Compound 59]	A (Fold activation >200%)	A (EC1.5<1.0 uM)
Cc1cc(-c2ccc3cccc(NC(=O)c4cscn4)c3n2)ccn1 [Compound 197]	A (Fold activation >200%)	A (EC1.5<1.0 uM)
O=C(Nc1cccc(OC[C@@H](O)CO)c1)c1cccc2ccc(-c3cccc(C(F)(F)F)c3)nc12 [Compound 207]	A (Fold activation >200%)	A (EC1.5<1.0 uM)

— US8685970B2, “Quinolines and related analogs as sirtuin modulators” (GlaxoSmithKline, LLC, priority 2008, dated 2014)
